ChEMBL document CHEMBL1201862, “PubChem BioAssay data set” (2004)
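Grown in 96-well plates, cells were treated for 48 hours with each compound at five concentrations. Insufficient inhibition: endpoint recorded as highest concentration tested. GI50 marks 50% less growth.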 Active and inactive are the calls of the source. Cut-off read from the data, not from the text of the source: active = GI50 up to about 1.1 µM and inactive = higher.

Columns and labels:
Test in all cases: DTP human tumour cell line panel, 48 h
NCI-H522 = system: NCI-H522
DU-145 = system: DU-145
HOP-92 = system: HOP-92
786-0 = system: 786-0
KM12 = system: KM12
HCT-15 = system: HCT-15
IGROV-1 = system: IGROV-1
BT-549 = system: BT-549
U-251 = system: U-251
RXF 393 = system: RXF 393
OVCAR-8 = system: OVCAR-8
M14 = system: M14
TK-10 = system: TK-10
UACC-62 = system: UACC-62
SN12C = system: SN12C
PC-3 = system: PC-3
HT-29 = system: HT-29
MCF7 = system: MCF7
OVCAR-5 = system: OVCAR-5
A549 = system: A549

| SMILES | GI50 (NCI-H522) | GI50 (DU-145) | GI50 (HOP-92) | GI50 (786-0) | GI50 (KM12) | GI50 (HCT-15) | GI50 (IGROV-1) | GI50 (BT-549) | GI50 (U-251) | GI50 (RXF 393) | GI50 (OVCAR-8) | GI50 (M14) | GI50 (TK-10) | GI50 (UACC-62) | GI50 (SN12C) | GI50 (PC-3) | GI50 (HT-29) | GI50 (MCF7) | GI50 (OVCAR-5) | GI50 (A549) |
| --- | --- | --- | --- | --- | --- | --- | --- | --- | --- | --- | --- | --- | --- | --- | --- | --- | --- | --- | --- | --- |
| NC1CCCCC1.O=P(O)(O)C(O)/C=C/c1ccccc1 (stereo not given) | > 100 µM (inactive) | > 100 µM (inactive) | > 100 µM (inactive) | > 100 µM (inactive) | > 100 µM (inactive) | > 100 µM | > 100 µM (inactive) | > 100 µM (inactive) | > 100 µM (inactive) | > 100 µM (inactive) | > 100 µM (inactive) | > 100 µM (inactive) | > 100 µM (inactive) | > 100 µM (inactive) | > 100 µM (inactive) | > 100 µM (inactive) | > 100 µM (inactive) | > 100 µM (inactive) | > 100 µM (inactive) | > 100 µM (inactive) |
| O=c1c2ccccc2[nH]n1Cc1ccccc1 | > 100 µM (inactive) | > 100 µM (inactive) | > 100 µM (inactive) | > 100 µM (inactive) | > 100 µM (inactive) | > 100 µM | > 100 µM (inactive) | > 100 µM (inactive) | > 100 µM (inactive) | > 100 µM (inactive) | > 100 µM (inactive) | > 100 µM (inactive) | > 100 µM (inactive) | > 100 µM (inactive) | > 100 µM (inactive) | > 100 µM (inactive) | > 100 µM (inactive) | > 100 µM (inactive) | > 100 µM (inactive) | > 100 µM (inactive) |
| CCCCC(C(=O)NCCNC(=O)CCC(=O)N(C)O)C(=O)NCCNC(=O)CCC(=O)N(C)O | > 100 µM (inactive) | > 100 µM (inactive) | > 100 µM (inactive) | > 100 µM (inactive) | > 100 µM (inactive) | > 100 µM | > 100 µM (inactive) | > 100 µM (inactive) | > 100 µM (inactive) | > 100 µM (inactive) | > 100 µM (inactive) | > 100 µM (inactive) | > 100 µM (inactive) | > 100 µM (inactive) | > 100 µM (inactive) | > 100 µM (inactive) | > 100 µM (inactive) | > 100 µM (inactive) | > 100 µM (inactive) | > 100 µM (inactive) |
| CCOC1CC(=O)c2c(Br)sc(Br)c21 (stereo not given) | 28.5 µM (inactive) | 18 µM (inactive) | 17.5 µM (inactive) | 30.7 µM (inactive) | 19.3 µM (inactive) | 18 µM | 15.5 µM (inactive) | 24.4 µM (inactive) | 16.9 µM (inactive) | 18.5 µM (inactive) | 17.5 µM (inactive) | 17.1 µM (inactive) | 20.7 µM (inactive) | 18.7 µM (inactive) | 24.9 µM (inactive) | 20.8 µM (inactive) | 21.3 µM (inactive) | 21.2 µM (inactive) | 23.7 µM (inactive) | 29.2 µM (inactive) |
| COc1cc2c(cc1OCc1ccccc1)NC(=S)[C@@H]1CCCN1C2=S | 71.6 µM (inactive) | > 100 µM (inactive) | 94 µM (inactive) | 88.1 µM (inactive) | 30.1 µM (inactive) | > 100 µM | 80.7 µM (inactive) | > 100 µM (inactive) | 49.4 µM (inactive) | > 100 µM (inactive) | 12.3 µM (inactive) | > 100 µM (inactive) | > 100 µM (inactive) | > 100 µM (inactive) | > 100 µM (inactive) | > 100 µM (inactive) | 18.2 µM (inactive) | 95.5 µM (inactive) | > 100 µM (inactive) | 73.8 µM (inactive) |
| CCC(C)C1NC(=O)C(NC(=O)C(CC(C)C)N(C)C(=O)[C@@H]2C=CCN2C(=O)[C@H](C)O)C(C)OC(=O)[C@H](Cc2ccc(OC)cc2)N(C)C(=O)[C@@H]2CCCN2C(=O)[C@H](CC(C)C)NC(=O)C(C)C(=O)[C@H](C(C)C)OC(=O)CC1O (stereo not given in full) | 0.00111 µM (active) | 0.00501 µM (active) | 0.00643 µM (active) | 0.00185 µM (active) | < 0.01 µM (active) | 0.0239 µM | 0.00256 µM (active) | 0.00365 µM (active) | 0.00131 µM (active) | < 0.01 µM (active) | 0.00467 µM (active) | 0.00188 µM (active) | 0.0175 µM (active) | 0.00119 µM (active) | 0.00279 µM (active) | 0.00291 µM (active) | 0.00252 µM (active) | 0.00164 µM (active) | 0.0137 µM (active) | 0.004 µM (active) |
| CCCCC1=CC1(C#N)[N+](=O)[O-] (stereo not given) | 45.6 µM (inactive) | > 100 µM (inactive) | 48.9 µM (inactive) | 72.4 µM (inactive) | > 100 µM (inactive) | > 100 µM | > 100 µM (inactive) | 40.6 µM (inactive) | > 100 µM (inactive) | > 100 µM (inactive) | > 100 µM (inactive) | 30.8 µM (inactive) | > 100 µM (inactive) | 60.3 µM (inactive) | 90.8 µM (inactive) | > 100 µM (inactive) | > 100 µM (inactive) | 45.4 µM (inactive) | > 100 µM (inactive) | > 100 µM (inactive) |
| COC1CC(OC2CCC3(C)C(=CCC4C3C(OC(C)=O)C(OC(=O)CC(C)C)C3(C)C(C(C)=O)CCC43O)C2)OC(C)C1OC1CC(OC)C(OC2CC(OC)C(OC3OC(C)C(O)C(OC)C3O)C(C)O2)C(C)O1 (stereo not given) | 37.9 µM (inactive) | 40.6 µM (inactive) | 22.5 µM (inactive) | 24.9 µM (inactive) | 33.1 µM (inactive) | 27.3 µM | 32.4 µM (inactive) | 24.5 µM (inactive) | 37.8 µM (inactive) | 20.1 µM (inactive) | 29.2 µM (inactive) | 38.7 µM (inactive) | 25.9 µM (inactive) | 26.1 µM (inactive) | 34.8 µM (inactive) | 18.5 µM (inactive) | 19.9 µM (inactive) | 21.9 µM (inactive) | 86.7 µM (inactive) | 37.2 µM (inactive) |
| CCOC(=O)c1nc2c(nc1C(=O)OCC)C(=O)c1ccccc1C2=O | 0.671 µM (active) | 0.828 µM (active) | 5.36 µM (inactive) | 0.839 µM (active) | 1.45 µM (inactive) | 1.92 µM | 2.75 µM (inactive) | 0.471 µM (active) | 0.703 µM (active) | 0.649 µM (active) | 1.05 µM (active) | 0.585 µM (active) | 2.75 µM (inactive) | 0.288 µM (active) | 0.201 µM (active) | 2.9 µM (inactive) | 2.5 µM (inactive) | 0.34 µM (active) | 0.562 µM (active) | 0.594 µM (active) |
| O=C(c1ccco1)C1CC(c2ccc3ccccc3c2O)=NN1c1ccc([N+](=O)[O-])cc1[N+](=O)[O-] (stereo not given) | 7.98 µM (inactive) | 37.6 µM (inactive) | 12.4 µM (inactive) | 31 µM (inactive) | 3.95 µM (inactive) | 17.9 µM | 14 µM (inactive) | 29.7 µM (inactive) | 28.4 µM (inactive) | 29.9 µM (inactive) | 23.8 µM (inactive) | 22.9 µM (inactive) | 30 µM (inactive) | 17.6 µM (inactive) | 32.8 µM (inactive) | 16.4 µM (inactive) | 13.7 µM (inactive) | 12.8 µM (inactive) | 16 µM (inactive) | 22.3 µM (inactive) |
| Nc1nc(Cl)c(/N=N/c2ccc(Cl)cc2)c(NCC2(CO)CCC(CCc3ccccc3)C2)n1 (stereo not given) | 1.31 µM (inactive) | 13.2 µM (inactive) | 11.1 µM (inactive) | 6.32 µM (inactive) | 13.2 µM (inactive) | 6.87 µM | 6.22 µM (inactive) | 6.81 µM (inactive) | 14.1 µM (inactive) | 7.8 µM (inactive) | 5.4 µM (inactive) | 8.81 µM (inactive) | 13.8 µM (inactive) | 10.4 µM (inactive) | 9.46 µM (inactive) | 12.2 µM (inactive) | 12.1 µM (inactive) | 5.62 µM (inactive) | 15.4 µM (inactive) | 14.1 µM (inactive) |
| COC(=O)Nc1nc2cc(NS(=O)(=O)c3ccc(Cl)cc3)ccc2[nH]1 | 3.4 µM (inactive) | 20.4 µM (inactive) | 1.84 µM (inactive) | 17.7 µM (inactive) | 3.61 µM (inactive) | 6.44 µM | 2.59 µM (inactive) | 13.4 µM (inactive) | 12.2 µM (inactive) | 7.23 µM (inactive) | 13 µM (inactive) | 3.77 µM (inactive) | 2.7 µM (inactive) | 6.71 µM (inactive) | 16.3 µM (inactive) | 8.55 µM (inactive) | 4.26 µM (inactive) | 4.08 µM (inactive) | 17.9 µM (inactive) | 15.9 µM (inactive) |
| CCCCC1(N=[N+]=[N-])C(=O)C2C=CC=C3c4ccccc4N(C1=O)C32 (stereo not given) | 13.6 µM (inactive) | 58.5 µM (inactive) | > 10 µM (inactive) | 22 µM (inactive) | 24.8 µM (inactive) | 17.2 µM | 11.3 µM (inactive) | 24.5 µM (inactive) | 18.7 µM (inactive) | 13.7 µM (inactive) | 20.1 µM (inactive) | 19.3 µM (inactive) | 16.4 µM (inactive) | 23.1 µM (inactive) | 30.1 µM (inactive) | 18.9 µM (inactive) | 14.1 µM (inactive) | 17.1 µM (inactive) | 19.8 µM (inactive) | 19.5 µM (inactive) |
| O=c1[nH]c(=O)n(C/C=C/CBr)nc1Br | 4.33 µM (inactive) | > 100 µM (inactive) | 13.4 µM (inactive) | 12.6 µM (inactive) | 14.9 µM (inactive) | 14.5 µM | 15.9 µM (inactive) | 14.5 µM (inactive) | 9.4 µM (inactive) | 12 µM (inactive) | 14.5 µM (inactive) | 13.9 µM (inactive) | 17.7 µM (inactive) | 13.8 µM (inactive) | 14.8 µM (inactive) | 12.2 µM (inactive) | 12.9 µM (inactive) | 10.1 µM (inactive) | 16.9 µM (inactive) | 15.8 µM (inactive) |
